# Columns and labels:
# [1] = tested on: Salmonella typhimurium (TA98, TA100, TA1535 and TA1537); test: Bacterial mutation test, Salmonella typhimurium; type: cell-based
# Description: These conditions included treatments at concentrations up to […] (the maximum recommended concentration according to current regulatory guidelines), in the absence and in the presence of a rat liver metabolic activation system (S-9).
# [2] = Pharmacokinetics of 5-MeO-DMT and bufotenine after inhalation, LC-MS/MS; type: in vivo, human
# Protocol: Blood samples were obtained at 1; 2; 4; 7; 10; 15; 20; 30; 45 min and 1; 1.5; 2; 3; 4 hours after administration.
# PK parameters were generated by algebraic analysis of the concentration versus time plots for each individual. The analysis was carried out using the software Phoenix WinNonlin 6.3.
structure (smiles),measurement,setting,value
COc1ccc2[nH]cc(CCN(C)C)c2c1 [5-MeO-DMT],in vitro genotoxicity assessment,[1],negative
same,induction of mutation,"[1]; up to 5000 μg/plate, with and without S-9",did not induce mutation
same,plasma concentration as % of Cmax,"[2]; 10 minutes after administration, 6-18 mg",≤ 10%
same,plasma concentration as % of Cmax,"[2]; after 2 hours, 6-18 mg",≤ 1%
same,detectability in plasma,"[2]; after 3 hours, 6-18 mg",no longer detectable
same,"5-MeO-DMT still present, % Cmax","[2]; after about 1 hour, healthy volunteers and PPD patients",less than 10%
same,accumulation upon repeated administration,[2]; repeat within 1 to 4 hours,No accumulation

# Reference: patent US20240108602A1, “TREATMENT OF MENTAL DISORDERS” (GH Research Ireland Limited, priority 2022, published 2024)
